Experimental data as given in paper PMC6630699, “Synthesis and Cytotoxicity Evaluation of DOTA-Conjugates of Ursolic Acid” (Molecules, 2019).
Where a name gives a salt, the structure may show the parent alone.

Key:
[1] = system: A375 (melanoma); assay: SRB cytotoxicity assay, A375; format: cell-based, human; conditions: for EC50: Homo sapiens, A-375, SRB assay, 72 h of treatment; for Selectivity index SI A375: SI = EC50 (NIH 3T3)/EC50 (A375)
Description: (§1) Due to cytotoxicity evaluation, the prepared UA-DOTA conjugates were screened in rhodamine B assays employing a series of human tumor cell lines and non-malignant mouse fibroblasts (NIH 3T3).
(§2) The cell lines used are human cancer cell lines: A2780 (ovarian carcinoma), HT29 (colon adenocarcinoma), MCF-7 (breast adenocarcinoma), A375 (melanoma), FaDu (pharynx squamous cell carcinoma) and non-malignant mouse fibroblasts NIH 3T3; all cell lines were obtained from the Department of Oncology (Martin-Luther-University Halle-Wittenberg). Cultures were maintained as monolayers in RPMI 1640 medium with L-glutamine (Capricorn Scientific GmbH, Ebsdorfergrund, Germany) supplemented with 10% heat inactivated fetal bovine serum (Sigma-Aldrich Chemie GmbH, Steinheim, Germany) and penicillin/streptomycin (Capricorn Scientific GmbH, Ebsdorfergrund, Germany) at 37 °C in a humidified atmosphere with 5% CO2.
(§3) The cytotoxicity of the compounds was evaluated using the sulforhodamine-B (Kiton-Red S, ABCR) micro culture colorimetric assay. Cells were seeded into 96-well plates on day 0 at appropriate cell densities to prevent confluence of the cells during the period of experiment. After 24 h, the cells were treated with six different concentrations (1, 3, 7, 12, 20, and 30 µM) minimum. The final concentration of DMSO/DMF never exceeded 0.5%, which was non-toxic to the cells. After a 72-h treatment, the supernatant medium from the 96-well plates was discarded, the cells were fixed with 10% trichloroacetic acid (TCA) and allowed to rest at 4 °C. After 24 h fixation, the cells were washed in a strip washer and dyed with SRB solution (100 µL, 0.4%, in 1% acetic acid) for about 20 min. After dying, the plates were washed four times with 1% acetic acid to remove the excess of the dye and allowed to air-dry overnight. Tris base solution (200 µL, 10 mM) was added to each well and absorbance was measured at λ = 570 nm using a 96 well plate reader (Tecan Spectra, Crailsheim, Germany). The EC50 values were averaged from three independent experiments performed each in triplicate calculated from semi logarithmic dose response curves applying a non-linear 4P Hills-slope equation (GraphPad Prism5; variables top and bottom were set to 100 and 0, respectively).

[2] = system: A2780 (ovarian carcinoma); assay: SRB cytotoxicity assay, A2780; format: cell-based, human; conditions: for EC50: Homo sapiens, A2780, 72 h, SRB assay, 72 h of treatment; for Selectivity index SI A2780: SI = EC50 (NIH 3T3)/EC50 (A2780)
Description: as §1, §2, §3

[3] = system: HT29 (colon adenocarcinoma); assay: SRB cytotoxicity assay, HT29; format: cell-based, human; conditions: for EC50: Homo sapiens, HT-29, SRB assay, 72 h of treatment; for Selectivity index SI HT29: SI = EC50 (NIH 3T3)/EC50 (HT29)
Description: as §1, §2, §3

[4] = system: FaDu (pharynx squamous cell carcinoma); assay: SRB cytotoxicity assay, FaDu; format: cell-based, human; conditions: for EC50: Homo sapiens, FaDu, SRB assay, 72 h of treatment; for Selectivity index SI FaDu: SI = EC50 (NIH 3T3)/EC50 (FaDu)
Description: as §1, §2, §3

[5] = system: non-malignant mouse fibroblasts NIH 3T3; assay: SRB cytotoxicity assay, NIH 3T3; format: cell-based; conditions: NIH3T3, 72 h of treatment
Description: as §1, §2, §3

[6] = system: MCF-7 (breast adenocarcinoma); assay: SRB cytotoxicity assay, MCF-7; format: cell-based, human; conditions: for EC50: Homo sapiens, MCF7, SRB assay, 72 h of treatment; for Selectivity index SI MCF-7: SI = EC50 (NIH 3T3)/EC50 (MCF-7)
Description: as §1, §2, §3

[7] = system: human tumor cell lines; assay: SRB cytotoxicity assay, statements over the whole cell line panel; format: cell-based; conditions: summary over all tumor cell lines
Description: as §1, §2, §3

melting point	Structure (SMILES)	EC50 [1]	Selectivity index SI A375 [1]	EC50 [2]	Selectivity index SI A2780 [2]	EC50 [3]	Selectivity index SI HT29 [3]	EC50 [4]	Selectivity index SI FaDu [4]	EC50 [5]	EC50 [6]	Selectivity index SI MCF-7 [6]	EC50 [7]
–	C[C@H]1[C@H](C)CC[C@]2(C(=O)NCCNC(=O)CN3CCN(CC(=O)OC(C)(C)C)CCN(CC(=O)OC(C)(C)C)CCN(CC(=O)OC(C)(C)C)CC3)CC[C@]3(C)C(=CC[C@@H]4[C@@]5(C)CC[C@H](O)C(C)(C)[C@@H]5CC[C@]43C)[C@H]12 [compound 29, Tri-tert-butyl 2,2’,2’’-[10-[2-[2-(3β-hydroxy-urs-12-en-28-oylamino)ethyl]amino-2-oxoethyl]-1,4,7,10-tetraazacyclododecane-1,4,7-triyl]triacetate]	2 ± 0.3 µM	1.15	1.6 ± 0.5 µM	1.44	1.7 ± 0.4 µM	1.35	2.9 ± 0.4 µM	0.79	2.3 ± 0.7 µM	–	–	–
180 to 182 °C	CC(C)(C)OC(=O)CN1CCNCCN(CC(=O)OC(C)(C)C)CCN(CC(=O)OC(C)(C)C)CC1 [compound 6, Tri-tert-butyl 2,2′,2’’-(1,4,7,10-tetraazacyclododecane-1,4,7-triyl)triacetate]	12.4 ± 2.7 µM	1.40	10.5 ± 3 µM	1.65	8.7 ± 2.7 µM	1.99	9.5 ± 0.9 µM	1.82	17.3 ± 0.1 µM	11.3 ± 2.3 µM	1.53	10 to 14 µM
206 to 210 °C (dec.)	CC(=O)O[C@H]1CC[C@]2(C)[C@H]3CC=C4[C@@H]5[C@@H](C)[C@H](C)CC[C@]5(C(=O)NCCN5CCN(C(=O)CN6CCN(CC(=O)O)CCN(CC(=O)O)CCN(CC(=O)O)CC6)CC5)CC[C@@]4(C)[C@]3(C)CC[C@H]2C1(C)C [compound 15, 2,2’,2’’-[10-[2-[4-[2-(3β-Acetyloxy-urs-12-en-28-oylamino)ethyl]piperazin-1-yl]-2-oxoethyl]-1,4,7,10-tetraazacyclododecane-1,4,7-triyl]triacetic acid]	> 60 µM	–	> 60 µM	–	> 60 µM	–	> 60 µM	–	> 60 µM	> 60 µM	–	> 60 µM
–	COc1cccc2c1C(=O)c1c(O)c3c(c(O)c1C2=O)C[C@@](O)(C(=O)CO)C[C@@H]3O[C@H]1C[C@H](N)[C@H](O)[C@H](C)O1 [DRC, doxorubicin hydrochloride, reference compound]	–	–	0.01 ± 0.01 µM	6.00	0.9 ± 0.2 µM	0.07	–	–	0.06 ± 0.03 µM	1.1 ± 0.3 µM	0.05	–
142 to 146 °C	CC(=O)O[C@H]1CC[C@]2(C)[C@H]3CC=C4[C@@H]5[C@@H](C)[C@H](C)CC[C@]5(C(=O)NCCN5CCN(C(=O)CN6CCN(CC(=O)OCc7ccccc7)CCN(CC(=O)OCc7ccccc7)CCN(CC(=O)OCc7ccccc7)CC6)CC5)CC[C@@]4(C)[C@]3(C)CC[C@H]2C1(C)C [compound 13, Tribenzyl 2,2’,2’’-[10-[2-[4-[2-(3β-acetyloxy-urs-12-en-28-oylamino)ethyl]piperazin-1-yl]-2-oxoethyl]-1,4,7,10-tetraazacyclododecane-1,4,7-triyl]triacetate]	–	–	2.1 ± 0.4 µM	1.71	4 ± 0.4 µM	0.90	6 ± 0.1 µM	0.60	3.6 ± 0.5 µM	3.3 ± 0.2 µM	1.09	< 6 µM
–	C[C@H]1[C@H](C)CC[C@]2(C(=O)O)CC[C@]3(C)C(=CC[C@@H]4[C@@]5(C)CC[C@H](O)C(C)(C)[C@@H]5CC[C@]43C)[C@H]12 [UA, Ursolic acid]	–	–	11.7 ± 0.6 µM	1.12	10.6 ± 0.7 µM	1.24	–	–	13.1 ± 1.1 µM	12.7 ± 0.1 µM	1.03	–
–	O=C(CN1CCNCCN(CC(=O)OCc2ccccc2)CCN(CC(=O)OCc2ccccc2)CC1)OCc1ccccc1 [compound 7, Tribenzyl 2,2’,2’’-(1,4,7,10-tetraazacyclododecane-1,4,7-triyl)triacetate]	4.7 ± 0.3 µM	0.96	3.8 ± 0.3 µM	1.18	2 ± 0.2 µM	2.25	3.9 ± 0.7 µM	1.15	4.5 ± 0.3 µM	4.1 ± 0.5 µM	1.10	< 5 µM
